The conditions of data set [1]: humans; cited from earlier work.
A further data set relates to RAW 264.7. To be noted: RAW 264.7, through down-regulating the activation of Akt; cited from earlier work.
In a further data set the test system is isolated rat arterioles. The conditions noted are these: compared to basal tone; cited from earlier work.
For the next data set, the system named is glycine cleavage system. To be noted: cited from earlier work.
The next data set concerns 13886 mRNA. The data set is described as follows: 13886 mRNA in aortas of treated rats (TaqMan). It counts as in vivo. The conditions noted are these: seven days, vs vehicle treated controls, p<0.005 ANOVA. From the text: (§1) This example describes the TaqMan™ procedure. The Taqman™ procedure is a quantitative, reverse transcription PCR-based approach for detecting mRNA. The RT-PCR reaction exploits the 5′ nuclease activity of AmpliTaq Gold™ DNA Polymerase to cleave a TaqMan™ probe during PCR. Briefly, cDNA was generated from the samples of interest, e.g., heart, kidney, liver, skeletal muscle, and various vessels, and used as the starting material for PCR amplification. In addition to the 5′ and 3′ gene-specific primers, a gene-specific oligonucleotide probe (complementary to the region being amplified) was included in the reaction (i.e., the Taqman™ probe). […]
(§2) During the PCR reaction, cleavage of the probe separates the reporter dye and the quencher dye, resulting in increased fluorescence of the reporter. Accumulation of PCR products is detected directly by monitoring the increase in fluorescence of the reporter dye. When the probe is intact, the proximity of the reporter dye to the quencher dye results in suppression of the reporter fluorescence. […]

For a further data set, the system named is 6169 mRNA. The experiment in a line: 6169 mRNA in human primary hepatocytes (TaqMan). It counts as cell-based.
Description: as §1, §2
For orientation: In qPCR the cycle at which signal appears reflects the starting amount.

Another data set relates to 32345 mRNA. The experiment in a line: 32345 mRNA in HUVECs (TaqMan). It counts as cell-based, human.
Description: as §1, §2

For data set [2], the target named is 1722 (Protein Kinase C mu or PKD) (Homo sapiens, UniProt Q15139). To be noted: Biochem Pharmacol. 2001; cited from earlier work.
The subject of a further data set is 2569654 mRNA. The data set is described as follows: 2569654 mRNA in marmoset models (TaqMan). It is filed as in vivo. From the text:
(§3) This example describes the TaqMan™ procedure. The Taqman™ procedure is a quantitative, reverse transcription PCR-based approach for detecting mRNA. The RT-PCR reaction exploits the 5′ nuclease activity of AmpliTaq Gold™ DNA Polymerase to cleave a TaqMan™ probe during PCR. Briefly, cDNA was generated from the samples of interest, e.g., heart, kidney, liver, skeletal muscle, and various vessels, and used as the starting material for PCR amplification. In addition to the 5′ and 3′ gene-specific primers, a gene-specific oligonucleotide probe (complementary to the region being amplified) was included in the reaction (i.e., the Taqman™ probe). The TaqMan™ probe includes the oligonucleotide with a fluorescent reporter dye covalently linked to the 5′ end of the probe (such as FAM (6-carboxyfluorescein), TET (6-carboxy4,7,2′,7′-tetrachlorofluorescein), JOE (6-carboxy-4,5-dichloro-2,7-dimethoxyfluorescein), or VIC) and a quencher dye (TAMRA (6-carboxy-N,N,N′,N′-tetramethylrhodamine) at the 3′ end of the probe.
(§4) During the PCR reaction, cleavage of the probe separates the reporter dye and the quencher dye, resulting in increased fluorescence of the reporter. Accumulation of PCR products is detected directly by monitoring the increase in fluorescence of the reporter dye. When the probe is intact, the proximity of the reporter dye to the quencher dye results in suppression of the reporter fluorescence. During PCR, if the target of interest is present, the probe specifically anneals between the forward and reverse primer sites. The 5′-3′ nucleolytic activity of the AmpliTaq™ Gold DNA Polymerase cleaves the probe between the reporter and the quencher only if the probe hybridizes to the target. The probe fragments are then displaced from the target, and polymerization of the strand continues. The 3′ end of the probe is blocked to prevent extension of the probe during PCR. […] RNA was prepared using the trizol method and treated with DNase to remove contaminating genomic DNA. cDNA was synthesized using standard techniques.

For a further data set, the system named is 3533 mRNA. The experiment in a line: 3533 mRNA regulation by lipid lowering drugs (TaqMan).
Description: as §3, §4

The conditions of data set [3]: humans, betaine supplemented diets vs control group; cited from earlier work.
Another data set concerns 966 mRNA. The data set is described as follows: 966 mRNA in aortic arches of mice given captopril (TaqMan). It counts as in vivo. The conditions noted are these: given for 6 or 12 weeks.
Description: as §1, §2

A further data set concerns 1510 mRNA. The data set is described as follows: 1510 mRNA in aortic arches of ApoE knockout mice (TaqMan). It is filed as in vivo. To be noted: relative to abdominal aorta, 12 weeks.
Description: as §1, §2

Sequence of 1722 (Protein Kinase C mu or PKD) (Q15139 whole entry): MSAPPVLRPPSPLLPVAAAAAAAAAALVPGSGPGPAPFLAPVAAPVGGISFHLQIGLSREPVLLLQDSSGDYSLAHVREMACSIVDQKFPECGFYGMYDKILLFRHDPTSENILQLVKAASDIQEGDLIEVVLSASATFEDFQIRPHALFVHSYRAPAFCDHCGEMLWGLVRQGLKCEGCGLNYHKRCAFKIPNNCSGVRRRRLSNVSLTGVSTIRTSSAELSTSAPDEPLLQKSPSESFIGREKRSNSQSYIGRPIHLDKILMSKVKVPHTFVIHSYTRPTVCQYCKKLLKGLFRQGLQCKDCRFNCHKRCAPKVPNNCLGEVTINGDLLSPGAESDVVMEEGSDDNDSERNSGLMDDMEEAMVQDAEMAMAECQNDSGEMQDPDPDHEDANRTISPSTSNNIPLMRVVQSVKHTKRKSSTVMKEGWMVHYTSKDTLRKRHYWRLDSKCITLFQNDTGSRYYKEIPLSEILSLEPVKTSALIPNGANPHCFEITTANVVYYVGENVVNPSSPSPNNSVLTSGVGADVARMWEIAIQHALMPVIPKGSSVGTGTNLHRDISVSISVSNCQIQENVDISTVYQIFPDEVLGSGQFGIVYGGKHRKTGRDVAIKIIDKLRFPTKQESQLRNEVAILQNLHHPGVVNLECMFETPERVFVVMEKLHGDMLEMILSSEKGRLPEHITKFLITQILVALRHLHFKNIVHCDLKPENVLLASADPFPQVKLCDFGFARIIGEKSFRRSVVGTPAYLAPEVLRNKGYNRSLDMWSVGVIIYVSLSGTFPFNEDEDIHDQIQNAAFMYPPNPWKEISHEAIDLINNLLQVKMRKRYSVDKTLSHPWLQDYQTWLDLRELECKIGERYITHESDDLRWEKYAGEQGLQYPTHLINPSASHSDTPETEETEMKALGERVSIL

For the compound `CC1=C(/C=C/C(C)=C\C=C\C(C)=C\C(=O)O)C(C)(C)CCC1` [9-cis retinoic acid], the lipid profile result in data set [1] was “increase total cholesterol, ILDL-cholesterol, apoB and triglyceride levels and decrease HDL-cholesterol”. Take `CC1=C(/C=C/C(C)=C/C=C/C(C)=C\C(=O)O)C(C)(C)CCC1` [13-cis retinoic acid]: the lipid profile result in data set [1] was “increase total cholesterol, ILDL-cholesterol, apoB and triglyceride levels and decrease HDL-cholesterol”. Consider `CCCCCCCCCCCCC/C=C/[C@@H](O)[C@H](CO)NC(C)=O` [C(2)-ceramide], for which, in the data set on RAW 264.7, the “LPS-induced NO production” value is given as “inhibit”. For the compound `COc1cc2c(c(OC)c1OC)-c1ccc(OC)c(=O)cc1[C@@H](NC(C)=O)CC2` [Colchicine], in the data set on isolated rat arterioles, the vasoconstriction is given as 33.9%.

As for `NCCS` [Cysteamine], the “inhibition of the glycine cleavage system” value in the data set on glycine cleavage system is listed as “potent inhibitor”. As to `COC(=O)[C@@H](N)CCCNC(=N)N[N+](=O)[O-]` [L-NAME], in the data set with 13886 mRNA, the “expression of 13886 mRNA” value was “significantly down-regulated”. `CC[C@H](C)C(=O)O[C@H]1CCC=C2C=C[C@H](C)[C@H](CC[C@@H]3C[C@@H](O)CC(=O)O3)[C@H]21` [Mevastatin]: in the data set with 6169 mRNA, the “6169 mRNA upregulated” value came to 2.4 fold. Also, the “32345 mRNA expression” value in the data set with 32345 mRNA is reported as “upregulated”.

Take `Oc1ccc(C=Cc2cc(O)cc(O)c2)cc1` [Resveratrol]: the “autophosphorylation of 1722” value in [2] is given as “inhibit”. For the compound `N[C@@H](Cc1cc(I)c(Oc2ccc(O)c(I)c2)c(I)c1)C(=O)O` [T3], in the data set on 2569654 mRNA, the “2569654 mRNA expression” value is recorded as “upregulated”. In addition, the “3533 mRNA expression” value in the data set on 3533 mRNA is “downregulated”. On to `C[N+](C)(C)CC(=O)[O-]` [betaine, trimethylglycine], for which, in data set [3], the plasma homocysteine concentration result is recorded as “decrease”; the “total and LDL cholesterol concentration” value was “small but significant increase”. As to `C[C@H](CS)C(=O)N1CCC[C@H]1C(=O)O` [captopril], the “upregulation of 966 mRNA in mice aortic arches” value with 966 mRNA was “inhibited”. Besides, the “elevated expression of 1510 mRNA in aortic arches of ApoE knockout mice” value in the data set on 1510 mRNA is on record as “blocked”.

The record behind these values is patent US20050037946A1, “Methods and compositions for treating cardiovascular disease using 1722, 10280, 59917, 85553, 10653, 9235, 21668, 17794, 2210, 6169, 10102, 21061, 17662, 1468, 12282, 6350, 9035, 1820, 23652, 7301, 8925, 8701, 3533, 9462, 9123, 12788, 17729, 65552, 1261, 21476, 33770, 9380, 2569654, 33556, 53656, …” (Millennium Pharmaceuticals, Inc., priority 2003, published 2005).
